According to ChEMBL document CHEMBL3039007, “Structure-based identification of OATP1B1/3 inhibitors” (Mol Pharmacol, 2013):
Counter-ions that a name gives are not always drawn. Positions of bridges follow the written chain, without caps; N, C: chain ends. Non-standard residues stand in square brackets, D forms with d. Residues, ends and D or L forms follow the SMILES beside them. *: point of attachment. Ileψ(thiazoline)Cys = CC[C@H](C)[C@H](N)C1=N[C@H](C(=O)*)CS1; dOrn = NCCC[C@@H](N)C(=O)O

What was measured:
[1] = target: T1, Solute carrier organic anion transporter family member 1B1 (Homo sapiens, UniProt Q9Y6L6); settings: chinese hamster, cho, 10 µM
T1 sequence (Q9Y6L6 whole entry): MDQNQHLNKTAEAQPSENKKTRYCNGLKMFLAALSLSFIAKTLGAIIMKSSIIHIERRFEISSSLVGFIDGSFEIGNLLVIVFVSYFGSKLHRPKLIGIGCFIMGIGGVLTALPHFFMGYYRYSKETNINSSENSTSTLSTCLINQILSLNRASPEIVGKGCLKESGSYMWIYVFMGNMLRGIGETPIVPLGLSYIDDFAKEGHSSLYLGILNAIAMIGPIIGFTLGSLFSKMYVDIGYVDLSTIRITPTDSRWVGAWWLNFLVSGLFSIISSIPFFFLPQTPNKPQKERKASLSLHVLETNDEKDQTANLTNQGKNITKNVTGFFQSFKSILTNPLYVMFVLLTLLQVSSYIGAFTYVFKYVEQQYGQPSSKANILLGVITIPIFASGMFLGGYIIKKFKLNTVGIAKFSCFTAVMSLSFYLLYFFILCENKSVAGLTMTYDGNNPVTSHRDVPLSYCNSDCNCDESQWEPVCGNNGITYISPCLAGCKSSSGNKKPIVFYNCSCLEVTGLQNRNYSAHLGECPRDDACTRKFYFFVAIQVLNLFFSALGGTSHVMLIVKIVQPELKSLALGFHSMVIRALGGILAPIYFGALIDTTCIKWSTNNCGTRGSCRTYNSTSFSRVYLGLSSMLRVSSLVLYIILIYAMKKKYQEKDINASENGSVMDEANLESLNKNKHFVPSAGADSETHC

[2] = target: T2, Solute carrier organic anion transporter family member 1B3 (Homo sapiens, UniProt Q9NPD5); settings: chinese hamster, cho, 10 µM
T2 sequence (Q9NPD5 whole entry): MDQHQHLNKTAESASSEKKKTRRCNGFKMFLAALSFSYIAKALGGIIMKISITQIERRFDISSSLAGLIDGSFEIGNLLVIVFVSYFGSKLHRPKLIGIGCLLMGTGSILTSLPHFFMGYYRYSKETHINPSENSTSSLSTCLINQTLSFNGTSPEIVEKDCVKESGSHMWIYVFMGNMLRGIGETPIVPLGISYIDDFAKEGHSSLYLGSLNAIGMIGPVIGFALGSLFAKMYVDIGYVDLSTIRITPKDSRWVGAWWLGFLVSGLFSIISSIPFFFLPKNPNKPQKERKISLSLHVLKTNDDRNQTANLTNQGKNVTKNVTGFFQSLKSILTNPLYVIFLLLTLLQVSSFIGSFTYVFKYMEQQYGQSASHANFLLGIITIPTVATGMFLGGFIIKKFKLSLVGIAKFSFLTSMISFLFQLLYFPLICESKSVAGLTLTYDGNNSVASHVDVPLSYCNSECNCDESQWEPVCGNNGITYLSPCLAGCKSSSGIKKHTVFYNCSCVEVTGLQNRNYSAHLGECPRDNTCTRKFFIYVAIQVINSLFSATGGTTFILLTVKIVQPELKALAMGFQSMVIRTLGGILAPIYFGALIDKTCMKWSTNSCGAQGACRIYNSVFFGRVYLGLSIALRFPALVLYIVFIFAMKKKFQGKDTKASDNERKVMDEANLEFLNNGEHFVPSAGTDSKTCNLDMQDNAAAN

SMILES | residual activity [1] | residual activity [2]
CC[C@H](C)[C@H](N)C1=N[C@H](C(=O)N[C@@H](CC(C)C)C(=O)N[C@H](CCC(=O)O)C(=O)N[C@H](C(=O)N[C@H]2CCCCNC(=O)[C@H](CC(N)=O)NC(=O)[C@@H](CC(=O)O)NC(=O)[C@H](Cc3cnc[nH]3)NC(=O)[C@@H](Cc3ccccc3)NC(=O)[C@H]([C@@H](C)CC)NC(=O)[C@@H](CCCN)NC2=O)[C@@H](C)CC)CS1 [BACITRACIN] ({Ileψ(thiazoline)Cys}-L[dE]IK[dOrn]I[dF]H[dD]N; lactam 4-C) | 78.2% | 77.52%
NCC(CC(=O)O)c1ccc(Cl)cc1 (configuration not stated) [BACLOFEN] | 80.8% | 102.2%
COc1cc(C)c(C(=O)Oc2cc(C)c(C(=O)O)c(O)c2C)c(O)c1C=O [BAEOMYCESIC ACID] | 23.01% | 46.77%
O=c1cc(-c2ccccc2)oc2cc(O)c(O)c(O)c12 [BAICALEIN] | 91.06% | 90.2%
CCCCCCCCCCCCCCCCCCOCC(O)CO (configuration not stated) [BATILOL] | 92.94% | 108.3%
COc1cc2c3cc1Oc1cc(ccc1O)CC1c4c(cc(OC)c(O)c4Oc4ccc(cc4)CC3N(C)CC2)CCN1C (configuration not stated) [BEBEERINE] | 53.34% | 74.29%
CCC(=O)OCC(=O)[C@@]1(OC(=O)CC)[C@@H](C)C[C@H]2[C@@H]3CCC4=CC(=O)C=C[C@]4(C)[C@@]3(Cl)[C@@H](O)C[C@@]21C [BECLOMETHASONE DIPROPIONATE] | 41.53% | 14.78%
NC[C@H]1O[C@H](O[C@H]2[C@H](O)[C@@H](O[C@H]3O[C@H](CO)[C@@H](O)[C@H](N)[C@H]3O)[C@H](N)C[C@@H]2N)[C@H](N)[C@@H](O)[C@@H]1O.O=S(=O)(O)O [BEKANAMYCIN SULFATE] | 101.9% | 118.1%
CCOC(=O)[C@H](CCc1ccccc1)N[C@H]1CCc2ccccc2N(CC(=O)O)C1=O.Cl [BENAZEPRIL HYDROCHLORIDE] | 101.2% | 84.15%
CNC(=O)Oc1cccc2c1OC(C)(C)O2 [BENDIOCARB] | 88.1% | 84.46%
CC(Cc1cccc(C(F)(F)F)c1)NCCOC(=O)c1ccccc1.Cl (configuration not stated) [BENFLUOREX HYDROCHLORIDE] | 93.54% | 87.71%
CCCCN(CC)c1c([N+](=O)[O-])cc(C(F)(F)F)cc1[N+](=O)[O-] [BENFLURALIN] | 96.31% | 100.4%
Cl.NC(CO)C(=O)NNCc1ccc(O)c(O)c1O (configuration not stated) [BENSERAZIDE HYDROCHLORIDE] | 93.51% | 93.94%
CC(C)N1C(=O)c2ccccc2NS1(=O)=O [BENTAZON] | 109.9% | 96.3%
Cl.N/C(=N\C(=O)c1nc(Cl)c(N)nc1N)NCc1ccccc1 [BENZAMIL HYDROCHLORIDE] | 93.84% | 105%
O=C1c2ccccc2-c2cccc3cccc1c23 [BENZANTHRONE] | 127.3% | 69.74%
CCOC(=O)c1ccc(N)cc1 [BENZOCAINE] | 129.5% | 100.6%
NS(=O)(=O)c1cc2c(cc1Cl)N=C(CSCc1ccccc1)NS2(=O)=O [BENZTHIAZIDE] | 74.12% | 56.86%
O=C(OCc1ccccc1)c1ccccc1 [BENZYL BENZOATE] | 125.1% | 74.09%
S=C=NCc1ccccc1 [BENZYL ISOTHIOCYANATE] | 170.7% | 101.9%
Cl.NNCc1ccccc1 [BENZYLHYDRAZINE HYDROCHLORIDE] | 122.4% | 108.9%
CC(C)COCC(CN(Cc1ccccc1)c1ccccc1)N1CCCC1.Cl.O (configuration not stated) [BEPRIDIL HYDROCHLORIDE] | 124.1% | 131.3%
COc1ccc2cc3[n+](cc2c1OC)CCc1cc2c(cc1-3)OCO2.[Cl-] [BERBERINE CHLORIDE] | 110.4% | 108.4%

SMILES | residual activity [1] | residual activity [2]
COc1c2ccoc2cc2oc(=O)ccc12 [BERGAPTEN] | 93.84% | 97.44%
COc1c(O)cc2c(c1O)[C@@H]1O[C@H](CO)[C@@H](O)[C@H](O)[C@H]1OC2=O [BERGENIN] | 14.59% | 94.52%
C=C1CC/C=C(\C)CC[C@@H]2[C@@H]1CC2(C)C [BETA-CARYOPHYLLENE] | 99.94% | 88.67%
COc1cc([C@@H]2c3cc4c(c(O)c3C[C@H]3COC(=O)[C@@H]32)OCO4)cc(OC)c1OC [BETA-PELTATIN A] | 78.87% | 101.7%
C[N+](C)(C)CC(=O)O.[Cl-] [BETAINE HYDROCHLORIDE] | 82.22% | 113.7%
CCCCC(=O)O[C@]1(C(=O)CO)[C@@H](C)C[C@H]2[C@@H]3CCC4=CC(=O)C=C[C@]4(C)[C@@]3(F)[C@@H](O)C[C@@]21C [BETAMETHASONE VALERATE] | 38.6% | 10.24%
C[C@H]1C[C@H]2[C@@H]3CCC4=CC(=O)C=C[C@]4(C)[C@@]3(F)[C@@H](O)C[C@]2(C)[C@@]1(O)C(=O)CO [BETAMETHASONE] | 76.17% | 102.7%
O=C(O)CCNC(=O)c1ccccc1 [BETAMIPRON] | 116.1% | 92.61%
CC(C[N+](C)(C)C)OC(N)=O.[Cl-] (configuration not stated) [BETHANECHOL CHLORIDE] | 111.1% | 100%
C[N+]1(C)C[C@@H](O)C[C@@H]1C(=O)[O-] [BETONICINE] | 89.8% | 105.3%
C=C(C)[C@@H]1CC[C@]2(C(=O)O)CC[C@]3(C)[C@H](CC[C@@H]4[C@@]5(C)CC[C@H](O)C(C)(C)[C@@H]5CC[C@]43C)[C@@H]12 [BETULINIC ACID] | 25.94% | 38.62%
C=C(C)[C@@H]1CC[C@]2(CO)CC[C@]3(C)[C@H](CC[C@@H]4[C@@]5(C)CC[C@H](O)C(C)(C)[C@@H]5CC[C@]43C)[C@@H]12 [BETULIN] | 106.3% | 92.43%
CC(C)(Oc1ccc(CCNC(=O)c2ccc(Cl)cc2)cc1)C(=O)O [BEZAFIBRATE] | 72.82% | 74.47%
c1ccc(-c2ccc(C(c3ccccc3)n3ccnc3)cc2)cc1 (configuration not stated) [BIFONAZOLE] | 121.1% | 115.7%
COc1ccc(-c2coc3cc(OC)cc(OC)c3c2=O)cc1 [BIOCHANIN A, DIMETHYL ETHER] | 100.7% | 81.69%
COc1ccc(-c2coc3cc(O)cc(O)c3c2=O)cc1 [BIOCHANIN] | 98.38% | 113.5%
O=C(O)CCCC[C@@H]1SC[C@@H]2NC(=O)N[C@@H]21 [BIOTIN] | 93.06% | 96.7%
CC(=O)O[C@@](C)(CCC=C(C)C)C1CC=C(C)CC1 (some centres not stated) [BISABOLOL ACETATE] | 80.65% | 92.66%
CC(=O)Oc1ccc(C(c2ccc(OC(C)=O)cc2)c2ccccn2)cc1 [BISACODYL] | 97.08% | 103.3%
CCc1ccc2c(O)c3c(cc2c1C(=O)OC)C(=O)c1c(O)ccc(O)c1C3=O [BISANHYDRORUTILANTINONE] | 104.1% | 115.2%
O=C(/C=C/C(=O)Oc1ccccc1C(=O)O)Oc1ccccc1C(=O)O [BISSALICYL FUMARATE] | 104.8% | 99.92%
COc1cc2c(cc1O)C[C@H]1c3c(cc(O)c(OC)c3-2)CCN1C [BOLDINE] | 47.95% | 100.1%
O=C1C=C2CC3(O)COc4cc(O)ccc4C3=C2C=C1O (configuration not stated) [BRAZILEIN] | 96.33% | 95.51%
